Data on 2 molecules can be found in patent US11759480B2, “Compositions and methods for CAR T cell therapy” (ENDOCYTE, INC., priority 2017, dated 2023).

Molecules are shown by their SMILES. Where two headings read alike, the source gives them in different places.

One assay deals with MDA-MB-231 tumors. In kind it is in vivo, NSG mice. The method, then: MDA-MB-231 tumors were generated by subcutaneous implantation of cultured cells at 2×10^6 in NSG mice.
FITC-CAR-T cells were prepared as described previously. After culturing in-vitro for 12-20 days, they were frozen and stored at −80° C. in a freezing reagent containing 50% heat-inactivated AB+ human serum, 40% T cell culture media, and 10% DMSO. Frozen CAR-T cells were quickly thawed at 37° C., washed twice with PBS, and used for animal injection.
In general, EC17/CAR-T therapy initiated when mouse tumors reached ˜200-250 mm^3 and weekly EC17 doses at 500 nmol/kg started 2 days after the CAR-T administration. All EC17 doses were given towards the end of day (˜3-4 PM) to allow cytokine release syndrome (CRS) to develop overnight. Sodium fluorescein rescue at various doses (0.06-60 μmol/kg) was administrated after the first dose of EC17, when the animals experienced a severe CRS of grade 3-4 on a 0-5 grading scale (FIG. 31). Plasma samples at various time points (3-27 hours) post sodium fluorescein rescue were collected for multiplex cytokine analysis.
Approximately 48 hours after CAR-T cell infusion, mice were separated into 3 groups. The first group (#1) was not dosed with EC17 and served as the CAR-T cell control, the second (#2) and the third (#3) groups were intravenously injected with a single dose of EC17 (500 nmol/kg). […] Group #2 then received a single intravenous sodium fluorescein (60 μmol/kg) while group #3 was left un-rescued. […] Three satellite animals from each group were euthanized to collect blood and organs for cytokine analysis and organ toxicity evaluation. Whole blood was obtained via cardiac puncture and collected into EDTA containing tubes. Twenty-seven hours after sodium fluorescein rescue, mice rescued with 60 μmol/kg sodium fluorescein in group #2 were recovering and sCRS scale decreased to grade 2, while mice without rescue in group #3 had worse sCRS (grade 3-4). At this time, 6 satellite mice from each group were euthanized for blood collection and organ evaluation. The remaining mice were dosed with a single dose of 500 nmol/kg EC17 every week if desired, and the EC17 dosing dates were labeled in FIG. 36 as dashed vertical lines occurring after the notation “EC17”. Tumor volume and body weight changes were monitored 2-3 times per week.
To evaluate whether a lower level of sodium fluorescein can also rescue mice under sCRS, the same rescue study was performed except that sodium fluorescein was dosed at 0.06, 0.6, and 6 μmol/kg.

A further assay has as its system MDA-MB-231 tumor. Put plainly: Enumeration and characterization of FITC CAR T cells in blood after rescue (Example 33). In kind it is in vivo, NSG mice. On the procedure:
Plasma was removed from predetermined volumes of whole EDTA treated blood with a 10-minute 4° C. spin at 3000 g and the resulting cell pellets were incubated with a 10-fold volume of room temperature 1×RBC lysis solution [prepared from 10× stock; Biolegend, catalog #420301] for 5 minutes, centrifuged at 400 g for 5 min, and the cell pellet was washed in a 10-fold volume of ice cold phosphate buffered saline pH=7.4 and filtered with a 40 μm nylon filter and then pelleted again. The leukocyte pellets were then resuspended in flow cytometry staining solution [1% bovine serum albumin, 50 mg/mL human IgG (Equitech Bio, cat #SLH56-0001), 0.9% sodium azide in a phosphate buffered saline, pH=7.4] supplemented with both anti-mouse FcγIII/II receptor (CD16/CD32) block [clone 2.4G2; BD Bioscience, catalog #553142 at 1:100 (v/v) dilution] and anti-human Fc Block [BD Biosciences, catalog #564220 at 1:50 (v/v) dilution]. Leukocyte surface marker staining was performed with the addition of the following fluorochrome conjugated monoclonal antibodies added to each sample for 20 minutes on ice in the dark: anti-human CD45-APCeF780 [clone HI30, eBioscience #47-0459-42 at 1:20 (v/v) dilution], anti-human CD137-BV650 [clone 4B4-1, BD Bioscience #564092 at 1:20 (v/v) dilution], anti-human CD8α-PECy7 [clone RPA-T8, BD Bioscience, catalog #557746 at 1:20 (v/v) dilution], anti-human CD4-Percpe710 [clone SK3, eBioscience catalog #46-0047-42 at 1:20 (v/v) dilution]. After leukocyte staining, cells were washed with PBS and resuspended in cold PBS containing 53,000 CountBright™ beads [Invitrogen catalog #C36950] and transferred to flow cytometry collection tubes. Flow cytometry data was collected on the Gallios flow cytometer (Beckman Coulter, Brea, Calif.), where a minimum of 15,000 CountBright™ bead events were collected in an attempt to collect enough leukocyte events for an accurate count of infused CART cells in each mouse blood sample. Determination of the concentration of CAR T cells in each blood sample was calculated according to Invitrogen's instructions. Briefly, CAR T cells were identified as human CD45+ GFP+ events and were easily distinguished and counted using the Kaluza™ flow cytometry software. CountBright™ beads were uniformly labeled with a fluorochrome not utilized in the antibody panel used to identify the CAR T cells and were easily distinguished from the leukocytes and bead events were counted. Because 53,000 CountBright™ beads were added to each sample tube, we calculated the ratio of 53,000 total beads to bead events collected per sample and set the bead ratio equivalent to the unknown number of CAR T cells in each sample divided by the known number of CAR T cell events collected. Solving for the unknown gave us the number of CAR T cells isolated from each blood sample of known volumes. The number of CAR T cells in the circulation of each infused mouse was then represented on the graphs as the total number of CART cells per 50 μL of whole blood analyzed. Statistical significance was determined by utilizing an unpaired, two-tailed, students t-test with significance set at p<0.05 for comparisons between each of the three groups of mice.
The experimental timeline is represented in FIG. 53A. On day 0, GFP+FITC-CAR T cells [clone 4M5.3] were removed from cryopreservation, thawed and then infused intravenously into MDA-MB-231 tumor bearing NSG mice at 10 million per mouse [tumors ˜250 mm^3]. […]

As for `O=C([O-])c1ccccc1-c1c2ccc(=O)cc-2oc2cc([O-])ccc12.[Na+].[Na+]` [sodium fluorescein], the values for the recovery result in the assay with MDA-MB-231 tumors (0.06 μmol/kg) and in the assay on MDA-MB-231 tumors (6 μmol/kg) were “slowest recovery” and “recovered the fastest”, respectively. Further, the “time to near normal range of IFN-γ” value in the assay with MDA-MB-231 tumors (60 μmol/kg) was determined as 27 h. In addition, in the assay with MDA-MB-231 tumors (60 μmol/kg), the “time to normal range of IL-2, TNF-α, IL-3, GM-CSF, IL-6” value came out at 7 h. Besides, the “human cytokine levels in blood” value in the assay with MDA-MB-231 tumors (60 μmol/kg, 7 hours and 27 hours post rescue) is given as “much lower than those in un-rescued mice”. In the assay with MDA-MB-231 tumors (0.06, 0.6, 6 μmol/kg, ~8.3 million CAR-T), the sCRS severity result was “dose-dependent reduction of sCRS severity”. Besides, the sCRS grade result with MDA-MB-231 tumors (7 hours after 60 μmol/kg rescue, 0-5 grading scale) is “low grade 3”; with MDA-MB-231 tumors (27 hours after 60 μmol/kg rescue), 2 grade. Also, the lung edema result in the assay on MDA-MB-231 tumors (27 hours after rescue, 60 μmol/kg) is on record as “lung edema was improved”. The “median effective dose (human cytokine levels in mouse blood)” value in the assay with MDA-MB-231 tumors (IL-2, TNF-α, IFN-γ etc.) is listed as “about 0.6 μmol/kg”. Moreover, the “earliest cytokine response post rescue” value in the assay with MDA-MB-231 tumors (key cytokines) was 3 h. In addition, the “effect on anti-tumor activity of EC17/CAR-T therapy” value in the assay with MDA-MB-231 tumors (one dose 6 μmol/kg) is given as “didn't affect the anti-tumor activity”. For the same molecule, the “effect on CAR-T anti-tumor activity” value in the assay on MDA-MB-231 tumors (one dose 60 μmol/kg) is reported as “did not interfere with CAR-T anti-tumor activity in vivo”. For the same molecule, in the assay on MDA-MB-231 tumor (60 μmol/kg, 27 hours after rescue), the “CAR T cells in circulation” value was “CAR T cells reappear in the circulation”. Further, the “earliest increase of circulating CAR T cells” value in the assay with MDA-MB-231 tumor (0.06-6 μmol/kg) is 3 h. In addition, the “CAR T cell extravasation into the blood” value in the assay on MDA-MB-231 tumor (24 hours post rescue, 0.06-6 μmol/kg) is “increased in a sodium fluorescein dose-dependent manner”. Also, the “4-1BB (CD137) on circulating CAR T cells” value with MDA-MB-231 tumor (CAR T + EC17 + sodium fluorescein 60 μmol/kg) was “express significant amounts of 4-1BB”.
As for `Nc1nc2ncc(CNc3ccc(C(=O)NC(CCC(=O)NCCNC(=S)Nc4ccc(-c5c6ccc(=O)cc-6oc6cc(O)ccc56)c(C(=O)O)c4)C(=O)O)cc3)nc2c(=O)[nH]1` (stereo not shown) [EC17, FITC-Folate], in the assay with MDA-MB-231 tumors (500 nmol/kg SIW, ~10.4 million FITC-CAR-T), the tumor growth entry was “started to shrink and disappeared eventually”. In the assay with MDA-MB-231 tumor (one dose EC17 500 nmol/kg), the “CAR T cells in circulation” value is “very few CAR T cells are detected in the circulation”.
